ChEMBL document CHEMBL1201862, “PubChem BioAssay data set” (2004)
One block for each compound: values may come before it. The source made the active and inactive calls.

How the values were obtained:
[1] = target: T1, Leucine aminopeptidase (Plasmodium falciparum 3D7, UniProt Q8IL11); test: P. falciparum M17LAP inhibitors, primary screen, biochemical, fluorogenic H-Leu-NHMec substrate, 1536-well (AID 1619); format: functional
T1 sequence (Q8IL11 whole entry): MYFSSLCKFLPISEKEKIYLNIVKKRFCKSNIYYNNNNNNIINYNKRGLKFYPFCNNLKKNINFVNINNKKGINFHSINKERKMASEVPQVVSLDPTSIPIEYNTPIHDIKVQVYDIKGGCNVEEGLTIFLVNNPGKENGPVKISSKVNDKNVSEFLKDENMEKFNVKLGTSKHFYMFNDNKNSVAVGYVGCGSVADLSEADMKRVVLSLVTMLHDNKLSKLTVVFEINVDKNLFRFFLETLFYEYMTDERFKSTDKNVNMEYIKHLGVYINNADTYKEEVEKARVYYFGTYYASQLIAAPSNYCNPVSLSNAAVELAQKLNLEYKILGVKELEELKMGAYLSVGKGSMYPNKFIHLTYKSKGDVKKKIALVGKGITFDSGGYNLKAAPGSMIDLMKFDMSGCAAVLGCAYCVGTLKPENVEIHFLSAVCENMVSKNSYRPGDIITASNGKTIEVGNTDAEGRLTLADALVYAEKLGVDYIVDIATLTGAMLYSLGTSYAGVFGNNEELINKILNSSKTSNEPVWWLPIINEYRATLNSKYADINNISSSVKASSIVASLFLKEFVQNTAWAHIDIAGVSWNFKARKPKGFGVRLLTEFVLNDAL

[2] = target: Large T antigen (Simian virus 40, UniProt P03070); format: functional, Betapolyomavirus macacae;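 note: Confirmatory-stage PubChem screen for compounds that inhibit SV40 T antigen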
Large T antigen, sequence (P03070 whole entry): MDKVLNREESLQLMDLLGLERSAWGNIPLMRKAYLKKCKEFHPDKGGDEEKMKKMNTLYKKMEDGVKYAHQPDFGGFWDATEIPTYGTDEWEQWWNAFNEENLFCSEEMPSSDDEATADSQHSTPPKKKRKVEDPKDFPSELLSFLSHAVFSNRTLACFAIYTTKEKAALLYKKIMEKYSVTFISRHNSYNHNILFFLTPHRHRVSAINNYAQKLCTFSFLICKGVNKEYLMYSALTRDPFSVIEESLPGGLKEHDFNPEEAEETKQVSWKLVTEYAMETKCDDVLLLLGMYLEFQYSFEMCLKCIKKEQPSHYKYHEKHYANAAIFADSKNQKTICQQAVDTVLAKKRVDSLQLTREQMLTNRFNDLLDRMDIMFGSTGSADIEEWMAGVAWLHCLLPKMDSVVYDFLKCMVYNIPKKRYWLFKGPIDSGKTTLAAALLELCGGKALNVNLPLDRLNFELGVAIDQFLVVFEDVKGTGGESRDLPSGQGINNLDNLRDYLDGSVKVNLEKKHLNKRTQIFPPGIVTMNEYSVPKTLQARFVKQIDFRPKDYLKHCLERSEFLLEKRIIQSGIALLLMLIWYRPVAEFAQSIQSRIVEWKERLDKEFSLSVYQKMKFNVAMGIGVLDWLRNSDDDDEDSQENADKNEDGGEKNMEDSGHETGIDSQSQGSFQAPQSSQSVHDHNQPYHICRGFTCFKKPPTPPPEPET

[3] = target: T2, Intestinal-type alkaline phosphatase (Mus musculus, UniProt P24822); test: PubChem AID 488874; format: functional
T2 sequence (P24822 whole entry): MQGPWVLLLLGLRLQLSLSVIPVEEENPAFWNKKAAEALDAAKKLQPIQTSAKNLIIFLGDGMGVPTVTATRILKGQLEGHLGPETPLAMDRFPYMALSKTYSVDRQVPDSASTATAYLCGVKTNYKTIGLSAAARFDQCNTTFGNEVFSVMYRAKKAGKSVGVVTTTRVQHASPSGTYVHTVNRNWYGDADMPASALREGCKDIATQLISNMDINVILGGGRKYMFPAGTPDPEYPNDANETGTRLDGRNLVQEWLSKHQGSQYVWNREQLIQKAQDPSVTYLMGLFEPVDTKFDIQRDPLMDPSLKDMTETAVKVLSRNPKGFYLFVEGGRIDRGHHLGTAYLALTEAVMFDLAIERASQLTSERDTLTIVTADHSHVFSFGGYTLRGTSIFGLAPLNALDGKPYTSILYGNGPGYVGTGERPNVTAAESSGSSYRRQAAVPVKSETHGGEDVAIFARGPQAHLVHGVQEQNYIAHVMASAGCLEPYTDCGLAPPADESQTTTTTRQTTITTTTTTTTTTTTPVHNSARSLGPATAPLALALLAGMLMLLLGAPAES

[4] = target: T3, Intestinal-type alkaline phosphatase (Homo sapiens, UniProt P09923); test: inhibition of human intestinal alkaline phosphatase – biochemical, luminescent, uHTS hits, set 2, dose response (AID 488793); format: functional
T3 sequence (P09923 whole entry): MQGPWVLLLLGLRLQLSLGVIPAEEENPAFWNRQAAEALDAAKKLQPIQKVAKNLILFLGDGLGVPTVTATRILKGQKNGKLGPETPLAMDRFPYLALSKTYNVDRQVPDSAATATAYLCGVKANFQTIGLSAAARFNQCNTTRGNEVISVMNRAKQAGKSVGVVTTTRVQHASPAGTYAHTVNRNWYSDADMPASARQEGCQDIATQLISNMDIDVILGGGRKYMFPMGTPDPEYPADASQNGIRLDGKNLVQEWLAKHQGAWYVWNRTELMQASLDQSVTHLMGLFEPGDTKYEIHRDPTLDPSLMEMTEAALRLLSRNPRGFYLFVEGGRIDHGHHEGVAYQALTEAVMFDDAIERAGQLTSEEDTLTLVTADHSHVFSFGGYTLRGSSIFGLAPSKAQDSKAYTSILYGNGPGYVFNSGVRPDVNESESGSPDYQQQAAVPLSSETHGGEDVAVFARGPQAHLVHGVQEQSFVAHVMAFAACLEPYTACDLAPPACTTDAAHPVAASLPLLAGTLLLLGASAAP

[5] = target: T3, Intestinal-type alkaline phosphatase; test: Dose Response confirmation of uHTS hits from a small molecule inhibitors of human intestinal alkaline phosphatase via a luminescent assay. [Related pubchem assays (depositor defined):AID2544, AID2574]; format: functional
[6] = target: T4, Alkaline phosphatase, tissue-nonspecific isozyme (Homo sapiens, UniProt P05186); test: inhibition of tissue-nonspecific alkaline phosphatase – biochemical, dose response (AID 488882); format: functional
T4 sequence (P05186 whole entry): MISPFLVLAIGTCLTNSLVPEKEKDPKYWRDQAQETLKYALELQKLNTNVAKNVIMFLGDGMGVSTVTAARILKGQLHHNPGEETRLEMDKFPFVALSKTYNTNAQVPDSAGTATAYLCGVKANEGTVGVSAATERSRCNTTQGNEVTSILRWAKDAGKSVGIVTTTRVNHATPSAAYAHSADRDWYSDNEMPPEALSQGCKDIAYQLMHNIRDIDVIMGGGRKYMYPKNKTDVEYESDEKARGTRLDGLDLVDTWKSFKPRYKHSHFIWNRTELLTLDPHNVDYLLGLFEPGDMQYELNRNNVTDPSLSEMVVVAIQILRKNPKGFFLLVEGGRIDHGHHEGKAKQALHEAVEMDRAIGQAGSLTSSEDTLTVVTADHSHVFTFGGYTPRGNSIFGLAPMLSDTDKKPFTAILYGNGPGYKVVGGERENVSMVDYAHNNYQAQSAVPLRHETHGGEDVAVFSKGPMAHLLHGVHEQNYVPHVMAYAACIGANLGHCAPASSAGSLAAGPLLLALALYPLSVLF

[7] = target: T5, Tumor necrosis factor (Homo sapiens, UniProt P01375); test: analog potency on TNFa NF-kB signaling – cell-based, revised, SAR follow-up (AID 2337); format: functional
T5 sequence (P01375 whole entry, the tested form may be a part): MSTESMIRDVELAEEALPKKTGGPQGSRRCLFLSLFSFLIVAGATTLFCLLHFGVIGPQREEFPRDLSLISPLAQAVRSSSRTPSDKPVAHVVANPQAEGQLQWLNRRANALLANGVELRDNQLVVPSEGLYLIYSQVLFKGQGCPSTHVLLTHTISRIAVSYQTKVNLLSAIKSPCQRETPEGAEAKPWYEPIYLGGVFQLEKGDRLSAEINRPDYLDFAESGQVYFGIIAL

[8] = target: T6, Nucleotide-binding oligomerization domain-containing protein 1 (Homo sapiens, UniProt Q9Y239); test: SAR analysis of compounds that inhibit NOD1 - Set 3. [Related pubchem assays (depositor defined):AID1566, AID1575, AID1578, AID1849, AID1852, AID2333, AID2335, AID2466]; format: functional
T6 sequence (Q9Y239 whole entry): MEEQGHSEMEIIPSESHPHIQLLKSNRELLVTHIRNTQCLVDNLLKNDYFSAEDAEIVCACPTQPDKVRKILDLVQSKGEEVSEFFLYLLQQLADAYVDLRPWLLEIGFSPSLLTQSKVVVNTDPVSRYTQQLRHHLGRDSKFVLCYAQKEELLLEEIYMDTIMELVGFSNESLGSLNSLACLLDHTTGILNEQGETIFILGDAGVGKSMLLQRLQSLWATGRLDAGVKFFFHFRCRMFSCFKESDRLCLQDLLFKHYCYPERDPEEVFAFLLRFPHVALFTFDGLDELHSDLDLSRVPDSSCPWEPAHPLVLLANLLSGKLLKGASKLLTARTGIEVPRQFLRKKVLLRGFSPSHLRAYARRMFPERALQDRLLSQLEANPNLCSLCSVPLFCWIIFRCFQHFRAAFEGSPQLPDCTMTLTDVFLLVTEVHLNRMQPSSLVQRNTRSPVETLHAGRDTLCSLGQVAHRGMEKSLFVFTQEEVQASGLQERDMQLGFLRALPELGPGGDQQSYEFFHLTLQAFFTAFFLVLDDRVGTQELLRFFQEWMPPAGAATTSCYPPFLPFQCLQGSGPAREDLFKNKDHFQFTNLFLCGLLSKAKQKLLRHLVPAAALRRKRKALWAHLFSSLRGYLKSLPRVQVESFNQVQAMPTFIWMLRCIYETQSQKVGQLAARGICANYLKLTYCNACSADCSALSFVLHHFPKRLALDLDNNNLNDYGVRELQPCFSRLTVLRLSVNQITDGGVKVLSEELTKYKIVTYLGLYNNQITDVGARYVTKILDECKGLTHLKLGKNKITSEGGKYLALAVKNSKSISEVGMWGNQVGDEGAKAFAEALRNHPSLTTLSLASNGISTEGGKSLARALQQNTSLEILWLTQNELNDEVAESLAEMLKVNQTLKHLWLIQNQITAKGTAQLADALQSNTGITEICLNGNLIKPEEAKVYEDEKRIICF

[9] = target: T5, Tumor necrosis factor; test: analog potency on TNFa NF-kB signaling – cell-based, set 3, SAR follow-up (AID 2801); format: functional
[10] = tested on: HEK293; test: SAR analysis of compounds that are cytotoxic to HEK293 - Set 3. [Related pubchem assays (depositor defined):AID1575, AID1578, AID1848, AID1849, AID2001, AID2333, AID2334, AID2335, AID2337, AID2469]; format: functional, cell-based; settings: Homo sapiens
[11] = target: Nucleotide-binding oligomerization domain-containing protein 2 (Homo sapiens, UniProt Q9HC29); test: inhibition of MDP-driven NOD2 NF-kB reporter – cell-based, set 3, SAR follow-up (AID 2799); format: functional
Nucleotide-binding oligomerization domain-containing protein 2, sequence (Q9HC29 whole entry, the tested form may be a part): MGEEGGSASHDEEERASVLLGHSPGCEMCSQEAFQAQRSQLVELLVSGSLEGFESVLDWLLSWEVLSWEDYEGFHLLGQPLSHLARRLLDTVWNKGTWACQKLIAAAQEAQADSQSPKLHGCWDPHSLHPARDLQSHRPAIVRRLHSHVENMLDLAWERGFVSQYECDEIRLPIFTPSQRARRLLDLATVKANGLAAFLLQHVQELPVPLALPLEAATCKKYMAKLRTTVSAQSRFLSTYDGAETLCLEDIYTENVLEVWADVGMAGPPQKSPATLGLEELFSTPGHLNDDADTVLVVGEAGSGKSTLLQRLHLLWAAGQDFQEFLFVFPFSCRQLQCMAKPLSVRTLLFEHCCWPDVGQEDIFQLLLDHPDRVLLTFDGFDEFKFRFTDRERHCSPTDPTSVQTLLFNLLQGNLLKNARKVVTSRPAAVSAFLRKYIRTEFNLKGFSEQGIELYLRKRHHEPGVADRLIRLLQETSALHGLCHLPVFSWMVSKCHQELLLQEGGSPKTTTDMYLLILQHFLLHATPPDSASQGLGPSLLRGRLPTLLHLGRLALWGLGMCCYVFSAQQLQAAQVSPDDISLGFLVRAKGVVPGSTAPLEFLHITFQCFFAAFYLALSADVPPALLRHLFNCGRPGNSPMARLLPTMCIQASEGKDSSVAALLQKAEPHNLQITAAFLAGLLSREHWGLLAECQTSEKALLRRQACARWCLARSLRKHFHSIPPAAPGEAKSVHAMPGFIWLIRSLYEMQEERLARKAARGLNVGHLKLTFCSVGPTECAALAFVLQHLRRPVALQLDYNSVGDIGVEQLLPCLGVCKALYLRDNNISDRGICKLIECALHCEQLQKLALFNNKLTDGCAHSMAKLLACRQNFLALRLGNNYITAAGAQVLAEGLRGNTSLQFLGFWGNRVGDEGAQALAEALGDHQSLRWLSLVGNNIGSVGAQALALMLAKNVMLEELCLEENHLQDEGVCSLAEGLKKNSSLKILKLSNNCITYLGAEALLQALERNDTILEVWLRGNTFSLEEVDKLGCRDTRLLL

[12] = tested on: HEK293; test: cells; settings: Homo sapiens
[13] = target: T3, Intestinal-type alkaline phosphatase; test: activation of human intestinal alkaline phosphatase – biochemical, dose response (AID 488873); format: functional
[14] = target: T2, Intestinal-type alkaline phosphatase; test: mouse intestinal alkaline phosphatase activators, dose response, biochemical, luminescence, uHTS hits (AID 488783); format: functional
[15] = target: T4, Alkaline phosphatase, tissue-nonspecific isozyme; test: activation of tissue-nonspecific alkaline phosphatase – biochemical, TNAP isozyme, mouse IAP uHTS hits, selectivity assay for mouse IAP activator project, dose response (AID 488880); format: functional

IC50 [1]: 48.2 µM (active)
IC50 [2]: 9.8 µM (active)
IC50 [3]: 3.29 µM (active)
IC50 [4]: 0.891 µM (active)
IC50 [5]: 3.15 µM (active)
IC50 [6]: > 100 µM (inactive)
SMILES: O=C(O)C1OC(Oc2c(-c3ccc(O)c(O)c3)oc3cc(O)cc(O)c3c2=O)C(O)C(O)C1O (stereo not given)

SMILES: Nc1cc(NC(=O)c2ccc3ccccc3c2O)ccc1Cl
IC50 [7]: > 20 µM (inactive)
IC50 [8]: > 20 µM (inactive)
IC50 [9]: > 20 µM (inactive)
IC50 [10]: > 20 µM (inactive)
IC50 [11]: > 20 µM (inactive)
IC50 [12]: > 20 µM (inactive)

EC50 [13]: 50.4 µM (active)
EC50 [14]: 54.1 µM (active)
EC50 [15]: 81.8 µM (active)
SMILES: O=C1CC(c2ccc(O)c(O)c2)Oc2cc(O)cc(O)c21 (stereo not given)
